{
  "source": "patent US7691858B2",
  "about": "“Kinase inhibitors and methods of use thereof” (TargeGen, Inc., priority 2006, dated 2010)",
  "key": {"[1]": {"target": "T1, PDGFRa (Homo sapiens, UniProt P16234)", "T1 construct": "purchased Upstate USA or Invitrogen (commercial screening service)", "experiment": "Kinase panel screen", "format": "biochemical", "settings": "Compound I and ATP 10 μM"}, "[2]": {"target": "T2, Met (Homo sapiens, UniProt P08581)", "T2 construct": "purchased Upstate USA or Invitrogen (contract screening service)", "experiment": "Kinase panel screen", "format": "biochemical", "settings": "Compound I and ATP 10 μM"}, "[3]": {"target": "T3, DDR2 (Homo sapiens, UniProt Q16832)", "T3 construct": "purchased Upstate USA or Invitrogen (commercial screening service)", "experiment": "Kinase panel screen", "format": "biochemical", "settings": "Compound I and ATP 10 μM"}, "[4]": {"target": "T4, MAPK2 (Homo sapiens, UniProt P28482)", "T4 construct": "purchased Upstate USA or Invitrogen (commercial screening service)", "T4 sequence (P28482 whole entry)": "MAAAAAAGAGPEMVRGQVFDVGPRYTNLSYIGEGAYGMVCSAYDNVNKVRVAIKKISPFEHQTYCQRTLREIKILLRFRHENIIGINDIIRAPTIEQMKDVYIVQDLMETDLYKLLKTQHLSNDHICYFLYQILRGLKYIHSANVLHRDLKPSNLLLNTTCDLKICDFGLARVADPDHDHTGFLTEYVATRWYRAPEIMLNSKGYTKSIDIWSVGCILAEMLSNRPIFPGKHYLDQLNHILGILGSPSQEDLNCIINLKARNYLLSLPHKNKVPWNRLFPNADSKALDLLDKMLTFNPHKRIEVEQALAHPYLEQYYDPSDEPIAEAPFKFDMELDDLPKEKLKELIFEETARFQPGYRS", "experiment": "Kinase panel screen", "format": "biochemical", "settings": "Compound I and ATP 10 μM"}, "[5]": {"target": "T5, Flt3 (Homo sapiens, UniProt P36888)", "T5 construct": "purchased Upstate USA or Invitrogen (commercial screening service)", "experiment": "Kinase panel screen", "format": "biochemical", "settings": "Compound I and ATP 10 μM"}, "[6]": {"target": "T6, PAK2 (Homo sapiens, UniProt Q13177)", "T6 construct": "purchased Upstate USA or Invitrogen (commercial screening service)", "experiment": "Kinase panel screen", "format": "biochemical", "settings": "Compound I and ATP 10 μM"}, "[7]": {"system": "VEGF-induced edema", "experiment": "Miles assay, VEGF as agonist", "format": "in vivo, Sprague-Dawley rats", "protocol": "A rodent model of vascular edema, the Miles assay, was used to screen compounds for their ability to inhibit VEGF-induced edema. […] Sprague-Dawley rats were first injected IV with vehicle alone or test agent, followed by IV injection of Evans blue dye, followed by intradermal injections of saline and VEGF (200 ng/injection site) along both shaved flanks."}, "[8]": {"target": "T7, PRAK (Homo sapiens, UniProt Q8IW41)", "T7 construct": "purchased Upstate USA or Invitrogen (contract screening service)", "T7 sequence (Q8IW41 whole entry)": "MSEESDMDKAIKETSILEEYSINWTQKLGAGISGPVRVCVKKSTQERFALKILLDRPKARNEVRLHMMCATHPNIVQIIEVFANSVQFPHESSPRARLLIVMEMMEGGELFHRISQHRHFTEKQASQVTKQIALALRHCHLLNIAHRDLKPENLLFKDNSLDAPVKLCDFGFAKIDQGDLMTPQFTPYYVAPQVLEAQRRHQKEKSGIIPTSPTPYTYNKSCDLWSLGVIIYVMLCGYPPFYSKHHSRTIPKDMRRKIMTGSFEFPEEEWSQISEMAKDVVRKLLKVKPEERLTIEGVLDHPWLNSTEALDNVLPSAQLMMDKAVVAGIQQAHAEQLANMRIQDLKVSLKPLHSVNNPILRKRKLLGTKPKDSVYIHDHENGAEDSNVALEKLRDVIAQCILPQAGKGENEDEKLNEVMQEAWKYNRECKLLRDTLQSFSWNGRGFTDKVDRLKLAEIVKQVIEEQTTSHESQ", "experiment": "Kinase panel screen", "format": "biochemical", "settings": "Compound I and ATP 10 μM"}, "[9]": {"target": "T8, PKCa (Homo sapiens, UniProt P17252)", "T8 construct": "purchased Upstate USA or Invitrogen (contract screening service)", "experiment": "Kinase panel screen", "format": "biochemical", "settings": "Compound I and ATP 10 μM"}, "[10]": {"system": "myocardial infarct", "experiment": "Rodent model of acute myocardial infarct (LAD occlusion/reperfusion)", "format": "in vivo, Sprague-Dawley rats", "protocol": "A rodent model of acute myocardial infarct, in which the proximal left anterior descending coronary artery (LAD) is occluded for 60 min followed by reperfusion, was used to determine whether test agents reduced infarct size at 24 hours.\nMyocardial infarcts were created in Sprague-Dawley rats (200-300 g body weight) by a 60 min occlusion of the LAD followed by LAD reperfusion. […] At 24 hr post-treatment, the ischemic zone (area at-risk, AAR) was delineated by re-ligation of the LAD followed by IV injection of alkali blue dye, after which hearts were sectioned along the short axis and stained using triphenyltetrazolium chloride to delineate viable from infarcted myocardium. Photographic images were then analyzed using morphometric software to calculate infarct area as a percent of the at-risk area.\nRodent MI model: All animal studies followed current “NIH Guidelines for the Use of Laboratory Animals” and were performed according to IACUC-approved protocols. Sprague-Dawley rats (275-300 g) were anesthetized using inhaled isoflurane after which chest walls were shaved and swabbed with iodine. Animals were then intubated and maintained on 2% isoflurane (delivered in 30% O2/70% N2), with optimal respiratory rate and stroke volumes set by a volume-controlled safety ventilator (Inspira Advanced Safety Ventilator; Harvard Apparatus, Holliston, Mass.). Body temperatures were maintained at 35-37° C. using heating pads and five-lead electrocardiograms established. For each animal, a left thoracotomy was performed at the third intercostal space, the heart was exposed and a suture snare tightened around the LAD at the point it appeared from beneath the left atrium. Ischemia was confirmed from blanching of the left ventricle (LV) as well as changes in ECG patterns. After the desired period of occlusion (60 min in the standard model), the suture snare was loosened to allow complete reperfusion (but retained in place using shallow sutures) and the chest closed in layers. […].\nFor infarct size determination, LAD occlusion was repeated on each animal 24 hr after the initial occlusion. The ischemic zone (area-at-risk or AAR) was then delineated by i.v. injection of Evans blue dye (5 ml of a 10% saline solution containing 100 U/ml sodium heparin). The heart was explanted, atria and right ventricle trimmed free, and the LV (septal and free walls) frozen at −20° C. to induce rigor. After thawing on ice, the LV was subdivided into six 2 mm thick sections along the short axis using a metal form to guide dissection. Heart sections were stained for 20 min in 37° C. triphenyltetrazolium chloride (TTC, 2% in 0.04 M K2HPO4/0.17 M sucrose) to delineate viable from infarcted myocardium, fixed for 20 min in 10% formalin, then rinsed in saline. For each section, photographs were taken of both anterior and posterior surfaces and these images analyzed (by personnel blinded as to treatment identity) using a morphometric software package (Image Pro Plus; Media Cybernetics, Silver Spring, Md.). The following areas were calculated, based on their differing pixel densities: non-ischemic zone (Evans blue-stained), viable-but-ischemic zone (free of Evans blue but TTC-stained), and infarct-within-ischemic zone (free of both Evans blue and TTC stain). Area values for anterior and posterior views were averaged, and these values used to calculate the following AAR=Viable-but-ischemic Area+Infarct Area Equation 1 Total LV Area=AAR+Non-ischemic Area Equation 2"}, "[11]": {"target": "T9, PKCi (Homo sapiens, UniProt P41743)", "T9 construct": "purchased Upstate USA or Invitrogen (commercial screening service)", "experiment": "Kinase panel screen", "format": "biochemical", "settings": "Compound I and ATP 10 μM"}, "[12]": {"target": "T10, IR (Homo sapiens, UniProt P06213)", "T10 construct": "purchased Upstate USA or Invitrogen (commercial screening service)", "T10 sequence (P06213 28-1382)": "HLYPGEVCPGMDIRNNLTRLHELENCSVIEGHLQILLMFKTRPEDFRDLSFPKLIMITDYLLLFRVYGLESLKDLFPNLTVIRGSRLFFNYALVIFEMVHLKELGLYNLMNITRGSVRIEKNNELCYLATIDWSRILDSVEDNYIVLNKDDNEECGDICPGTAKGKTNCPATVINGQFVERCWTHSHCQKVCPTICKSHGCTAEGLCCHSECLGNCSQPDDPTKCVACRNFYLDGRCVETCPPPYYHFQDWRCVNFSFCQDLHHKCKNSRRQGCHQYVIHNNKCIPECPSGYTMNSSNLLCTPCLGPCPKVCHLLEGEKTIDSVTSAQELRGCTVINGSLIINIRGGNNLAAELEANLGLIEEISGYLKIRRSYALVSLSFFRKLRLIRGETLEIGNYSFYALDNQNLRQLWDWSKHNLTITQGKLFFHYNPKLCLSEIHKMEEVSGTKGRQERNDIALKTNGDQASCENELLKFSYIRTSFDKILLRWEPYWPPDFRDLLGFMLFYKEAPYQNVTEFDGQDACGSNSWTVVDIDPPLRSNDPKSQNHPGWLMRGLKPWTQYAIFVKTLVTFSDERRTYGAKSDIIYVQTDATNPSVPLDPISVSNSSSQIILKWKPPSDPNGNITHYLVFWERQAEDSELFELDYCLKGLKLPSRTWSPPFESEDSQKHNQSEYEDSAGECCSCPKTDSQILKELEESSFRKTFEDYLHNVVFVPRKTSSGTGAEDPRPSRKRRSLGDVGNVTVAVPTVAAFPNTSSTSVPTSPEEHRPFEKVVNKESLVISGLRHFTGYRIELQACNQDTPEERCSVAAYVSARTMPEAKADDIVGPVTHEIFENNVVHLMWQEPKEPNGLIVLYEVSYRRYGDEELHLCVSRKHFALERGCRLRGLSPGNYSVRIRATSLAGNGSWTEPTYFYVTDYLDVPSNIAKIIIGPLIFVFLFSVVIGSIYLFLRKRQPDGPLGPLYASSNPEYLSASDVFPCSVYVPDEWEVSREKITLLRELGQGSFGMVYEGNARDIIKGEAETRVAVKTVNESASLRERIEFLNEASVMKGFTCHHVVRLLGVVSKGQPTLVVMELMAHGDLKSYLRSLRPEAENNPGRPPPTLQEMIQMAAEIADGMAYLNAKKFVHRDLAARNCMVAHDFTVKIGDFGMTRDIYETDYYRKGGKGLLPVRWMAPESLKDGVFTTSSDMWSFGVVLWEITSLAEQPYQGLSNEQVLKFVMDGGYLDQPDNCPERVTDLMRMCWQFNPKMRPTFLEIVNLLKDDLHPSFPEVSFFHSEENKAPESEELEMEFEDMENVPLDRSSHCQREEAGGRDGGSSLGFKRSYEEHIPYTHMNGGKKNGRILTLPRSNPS", "experiment": "Kinase panel screen", "format": "biochemical", "settings": "Compound I and ATP 10 μM"}, "[13]": {"target": "T11, MSK2 (Homo sapiens, UniProt O75676)", "T11 construct": "purchased Upstate USA or Invitrogen (contract screening service)", "T11 sequence (O75676 whole entry)": "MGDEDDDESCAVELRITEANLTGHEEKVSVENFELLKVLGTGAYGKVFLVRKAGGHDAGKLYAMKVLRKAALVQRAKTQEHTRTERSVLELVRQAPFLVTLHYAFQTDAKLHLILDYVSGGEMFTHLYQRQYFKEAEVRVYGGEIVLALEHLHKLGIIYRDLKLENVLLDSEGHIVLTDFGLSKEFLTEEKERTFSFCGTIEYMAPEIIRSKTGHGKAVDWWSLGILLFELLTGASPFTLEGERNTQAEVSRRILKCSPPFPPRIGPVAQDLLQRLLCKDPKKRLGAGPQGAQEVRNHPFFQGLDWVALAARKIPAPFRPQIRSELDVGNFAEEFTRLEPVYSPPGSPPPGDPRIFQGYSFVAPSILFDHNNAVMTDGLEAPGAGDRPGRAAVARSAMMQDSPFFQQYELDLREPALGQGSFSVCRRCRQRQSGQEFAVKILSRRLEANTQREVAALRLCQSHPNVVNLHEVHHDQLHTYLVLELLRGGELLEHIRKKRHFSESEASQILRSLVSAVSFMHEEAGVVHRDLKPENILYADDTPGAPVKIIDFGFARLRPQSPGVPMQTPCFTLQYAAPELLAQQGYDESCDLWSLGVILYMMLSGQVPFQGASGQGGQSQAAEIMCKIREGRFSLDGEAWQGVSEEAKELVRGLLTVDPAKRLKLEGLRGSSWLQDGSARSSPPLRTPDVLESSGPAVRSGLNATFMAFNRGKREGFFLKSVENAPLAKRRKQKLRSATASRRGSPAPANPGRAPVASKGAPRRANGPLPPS", "experiment": "Kinase panel screen", "format": "biochemical", "settings": "Compound I and ATP 10 μM"}, "[14]": {"target": "T12, MAPKAP-K2 (Homo sapiens, UniProt P49137)", "T12 construct": "purchased Upstate USA or Invitrogen (commercial screening service)", "experiment": "Kinase panel screen", "format": "biochemical", "settings": "Compound I and ATP 10 μM"}, "[15]": {"target": "T13, CK2 (Homo sapiens, UniProt P68400)", "T13 construct": "purchased Upstate USA or Invitrogen (contract screening service)", "T13 sequence (P68400 whole entry)": "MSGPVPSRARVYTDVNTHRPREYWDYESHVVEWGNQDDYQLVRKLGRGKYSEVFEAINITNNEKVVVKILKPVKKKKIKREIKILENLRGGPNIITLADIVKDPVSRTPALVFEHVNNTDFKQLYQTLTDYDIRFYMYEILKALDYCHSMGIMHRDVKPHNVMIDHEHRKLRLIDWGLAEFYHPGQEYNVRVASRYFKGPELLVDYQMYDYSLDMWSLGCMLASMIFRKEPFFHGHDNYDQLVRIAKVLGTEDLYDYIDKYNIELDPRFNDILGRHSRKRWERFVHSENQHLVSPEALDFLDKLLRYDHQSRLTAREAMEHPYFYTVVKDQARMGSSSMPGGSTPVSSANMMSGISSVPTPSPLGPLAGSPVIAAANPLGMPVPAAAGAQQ", "experiment": "Kinase panel screen", "format": "biochemical", "settings": "Compound I at 1 μM and ATP at the apparent Km"}, "[16]": {"target": "T14, Aurora-A (Homo sapiens, UniProt O14965)", "T14 construct": "purchased Upstate USA or Invitrogen (contract screening service)", "T14 sequence (O14965 whole entry)": "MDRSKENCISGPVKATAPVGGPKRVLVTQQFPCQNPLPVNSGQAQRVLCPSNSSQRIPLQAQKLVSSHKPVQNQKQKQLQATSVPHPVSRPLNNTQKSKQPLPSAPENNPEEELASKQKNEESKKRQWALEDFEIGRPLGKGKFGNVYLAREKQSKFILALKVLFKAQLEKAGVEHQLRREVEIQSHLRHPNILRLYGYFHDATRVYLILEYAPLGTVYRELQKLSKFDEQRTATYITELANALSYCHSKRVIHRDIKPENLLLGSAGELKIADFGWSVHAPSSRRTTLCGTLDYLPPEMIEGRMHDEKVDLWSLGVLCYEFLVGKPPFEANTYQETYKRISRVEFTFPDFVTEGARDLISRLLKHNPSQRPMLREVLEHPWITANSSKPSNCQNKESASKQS", "experiment": "Kinase panel screen", "format": "biochemical", "settings": "Compound I and ATP 10 μM"}, "[17]": {"target": "T15, ErbB4 (Homo sapiens, UniProt Q15303)", "T15 construct": "purchased Upstate USA or Invitrogen (commercial screening service)", "experiment": "Kinase panel screen", "format": "biochemical", "settings": "Compound I and ATP 10 μM"}, "[18]": {"target": "T16, Flt1 (Homo sapiens, UniProt P17948)", "T16 construct": "purchased Upstate USA or Invitrogen (commercial screening service)", "experiment": "Kinase panel screen", "format": "biochemical", "settings": "Compound I and ATP 10 μM"}, "[19]": {"target": "T17, cRaf (Homo sapiens, UniProt P04049)", "T17 construct": "purchased Upstate USA or Invitrogen (commercial screening service)", "experiment": "Kinase panel screen", "format": "biochemical", "settings": "Compound I at 1 μM and ATP at the apparent Km"}, "[20]": {"system": "CaMKII", "experiment": "Kinase panel screen", "format": "biochemical, rat", "settings": "Compound I and ATP 10 μM"}, "[21]": {"target": "T18, Blk (Mus musculus, UniProt P16277)", "T18 construct": "purchased Upstate USA or Invitrogen (commercial screening service)", "T18 sequence (P16277 whole entry)": "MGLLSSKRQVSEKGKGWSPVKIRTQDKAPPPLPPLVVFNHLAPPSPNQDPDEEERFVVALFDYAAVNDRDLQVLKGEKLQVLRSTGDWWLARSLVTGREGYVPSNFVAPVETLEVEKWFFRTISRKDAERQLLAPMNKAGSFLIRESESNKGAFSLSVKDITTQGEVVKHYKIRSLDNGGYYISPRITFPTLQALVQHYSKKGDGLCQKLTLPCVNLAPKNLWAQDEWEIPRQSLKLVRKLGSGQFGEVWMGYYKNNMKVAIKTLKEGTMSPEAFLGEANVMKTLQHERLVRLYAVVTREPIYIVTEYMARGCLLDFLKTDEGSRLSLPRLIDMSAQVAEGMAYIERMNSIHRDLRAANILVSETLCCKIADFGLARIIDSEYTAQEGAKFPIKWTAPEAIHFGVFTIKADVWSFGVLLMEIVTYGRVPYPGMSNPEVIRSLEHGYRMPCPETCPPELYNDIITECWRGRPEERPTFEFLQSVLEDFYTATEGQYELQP", "experiment": "Kinase panel screen", "format": "biochemical", "settings": "Compound I and ATP 10 μM"}, "[22]": {"target": "T19, PKCC, (Homo sapiens, UniProt Q05513)", "T19 construct": "purchased Upstate USA or Invitrogen (commercial screening service)", "T19 sequence (Q05513 whole entry)": "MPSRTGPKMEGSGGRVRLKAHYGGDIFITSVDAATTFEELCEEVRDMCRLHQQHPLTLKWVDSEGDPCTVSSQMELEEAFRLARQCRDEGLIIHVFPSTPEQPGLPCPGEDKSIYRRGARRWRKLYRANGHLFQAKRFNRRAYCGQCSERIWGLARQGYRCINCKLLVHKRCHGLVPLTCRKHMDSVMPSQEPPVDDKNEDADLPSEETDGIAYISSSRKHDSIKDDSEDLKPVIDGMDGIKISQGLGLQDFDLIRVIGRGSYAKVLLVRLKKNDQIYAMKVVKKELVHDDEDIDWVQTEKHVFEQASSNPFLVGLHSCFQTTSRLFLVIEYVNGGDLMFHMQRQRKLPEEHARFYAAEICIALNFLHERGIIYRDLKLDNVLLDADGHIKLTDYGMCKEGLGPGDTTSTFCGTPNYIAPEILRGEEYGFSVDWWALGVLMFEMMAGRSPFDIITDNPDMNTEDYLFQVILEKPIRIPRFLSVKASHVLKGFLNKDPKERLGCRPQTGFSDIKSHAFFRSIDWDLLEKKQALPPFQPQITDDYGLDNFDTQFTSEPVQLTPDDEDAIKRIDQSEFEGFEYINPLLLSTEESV", "experiment": "Kinase panel screen", "format": "biochemical", "settings": "Compound I and ATP 10 μM"}},
  "note": "“Also recorded” adds a separate entry of the source.",
  "data": [
    {"smiles": "Nc1nc(N)c2nc(-c3cccc(O)c3)c(-c3cccc(O)c3)nc2n1", "note": "[Compound I, 6,7-bis-(3-hydroxyphenyl)-pteridine-2,4-diamine]", "values": [
      {"measurement": "Percent Control, PDGFRa", "setting": "[1]", "value": 86, "unit": "%"},
      {"measurement": "Percent Control, Met", "setting": "[2]", "value": 41, "unit": "%"},
      {"measurement": "Percent Control, DDR2", "setting": "[3]", "value": 88, "unit": "%"},
      {"measurement": "Percent Control, MAPK2", "setting": "[4]", "value": 84, "unit": "%"},
      {"measurement": "Percent Control, Flt3", "setting": "[5]", "value": 80, "unit": "%"},
      {"measurement": "Percent Control, PAK2", "setting": "[6]", "value": 87, "unit": "%"},
      {"measurement": "time for which a single i.v. administration reduced edema formation", "setting": "[7]; Miles assay, varied time between compound and agonist challenge, data not shown", "value": "at least 4 hours"},
      {"measurement": "VEGF-induced vascular permeability / edema formation", "setting": "[7]; rats, Compound I pretreatment (1 mg/kg in FIG. 4)", "value": "inhibited; also recorded: reduced edema formation"},
      {"measurement": "Percent Control, PRAK", "setting": "[8]", "value": 63, "unit": "%"},
      {"measurement": "Percent Control, PKCa", "setting": "[9]", "value": 90, "unit": "%"},
      {"measurement": "reductions in infarct development vs. vehicle-treated controls", "setting": "[10]; 0.1 mg/kg, delivery between 0 and 3 h post-reperfusion (FIG. 6b)", "value": "58-67%"},
      {"measurement": "reduction in infarct size vs. vehicle controls", "setting": "[10]; rats, 0.3 mg/kg IV bolus 60 min into reperfusion, 24 hr, N=8", "value": 43, "unit": "%"},
      {"measurement": "infarct area as percentage of ischemic territory", "setting": "[10]; rats, 0.3 mg/kg IV bolus 60 min into reperfusion, mean±SD (±9), vehicle 62%±7", "value": 35, "unit": "%"},
      {"measurement": "improvement in fractional shortening", "setting": "[10]; single 0.5 mg/kg bolus one hour post-reperfusion, 4 weeks", "value": 24, "unit": "%"},
      {"measurement": "percent left ventricular long axis fractional shortening", "setting": "[10]; single 0.5 mg/kg bolus one hour post-reperfusion, echocardiography 4 weeks, mean±SEM, vehicle 27.2±1.9", "value": "33.6±2.0", "unit": "%"},
      {"measurement": "reduction of infarct size", "setting": "[10]; single i.v. bolus 60 mm post-reperfusion", "value": "≥ 40", "unit": "%"},
      {"measurement": "Percent Control, PKCi", "setting": "[11]", "value": 105, "unit": "%"},
      {"measurement": "Percent Control, IR", "setting": "[12]", "value": 81, "unit": "%"},
      {"measurement": "Percent Control, MSK2", "setting": "[13]", "value": 100, "unit": "%"},
      {"measurement": "Percent Control, MAPKAP-K2", "setting": "[14]", "value": 107, "unit": "%"},
      {"measurement": "Percent Control, CK2*", "setting": "[15]", "value": 96, "unit": "%"},
      {"measurement": "Percent Control, Aurora-A", "setting": "[16]", "value": 71, "unit": "%"},
      {"measurement": "Percent Control, ErbB4", "setting": "[17]", "value": 40, "unit": "%"},
      {"measurement": "Percent Control, Flt1", "setting": "[18]", "value": 62, "unit": "%"},
      {"measurement": "Percent Control, cRaf*", "setting": "[19]", "value": 98, "unit": "%"},
      {"measurement": "Percent Control, CaMKII (r)", "setting": "[20]", "value": 90, "unit": "%"},
      {"measurement": "Percent Control, Blk (m)", "setting": "[21]", "value": 57, "unit": "%"},
      {"measurement": "Percent Control, PKCC,", "setting": "[22]", "value": 99, "unit": "%"}
    ]}
  ]
}
